Target: T1, carbamoylytic enzyme (Enzyme II, carbamoylase) (Agrobacterium radiobacter, UniProt Q44185)
T1 construct: endogenous in cells; host or cells: Agrobacterium sp. cells, acetone-dried powder (crude, enzyme not purified)
Experiment: enzymic activity test of acetonic powder of Agrobacterium sp. cells on N-carbamoyl aminoacid substrates (NH4+ by phenol-hypochlorite method)
Assay type: biochemical
Conditions: 1-hour incubation; for % ACTIVITY (hydrolytic activity, assuming as 100 the activity against N-carbamoyl-D(-)-parahydroxyphenylglycine): 20 mM substrate in pyrophosphate buffer 0.1 M pH 7.7, acetonic powder, 40° C., under nitrogen
Experimental: Cells of Agrobacterium sp. strain were prepared as described in Example 1. A few grams of moist cellule slurry was slurried in pyrophosphate buffer (0.1 M pH 7.7) and subjected to acetonic treatment in the cold.
After removing acetone by filtration, the acetonic preparation thus obtained was dried to constant weight in vacuum at 35° C. The dried material was homogenized in a mortar and powder thus obtained was used for the enzymic activity tests.
The caetonic powder was assayed on the following substrates: N-carbamoyl-D-(-)-alanine, N-carbamoyl-D(-) valine, N-carbamoyl-D-(-)glutamic acid, N-carbamoyl-D(-)-parahydroxyphenylglycine,N-carbamoyl-D(-)-paramethoxyphenylglycine, N-carbamoyl-D-(-)-phenylglycine, N-carbamoyl-L(+)-phenylglycine, N-carbamoyl-D(-)-phenylalanine, N-carbamoyl-L(+)-glutamic acid and N-carbamoyl-D(-) (2-thienyl)-glycine.
Thus, 20 mM solution were prepared of each carbamoyl derivative in pyrophosphate buffer 0.1 M pH 7.7, and, to 10 mls of each solution there was added an adequate quantity of acetonic powder, equal for each substrate.
The incubation was carried out under a UPP nitrogen blanket with stirring at a temperature of 40° C. After 1-hour incubation, the quantity of the produced aminoacid was measured by determining in the reaction mixtures the concentration of the NH4^+ ion which has been reached, with the phenol-hypochlorite method indicated in Example 2.

T1 sequence (Q44185 whole entry): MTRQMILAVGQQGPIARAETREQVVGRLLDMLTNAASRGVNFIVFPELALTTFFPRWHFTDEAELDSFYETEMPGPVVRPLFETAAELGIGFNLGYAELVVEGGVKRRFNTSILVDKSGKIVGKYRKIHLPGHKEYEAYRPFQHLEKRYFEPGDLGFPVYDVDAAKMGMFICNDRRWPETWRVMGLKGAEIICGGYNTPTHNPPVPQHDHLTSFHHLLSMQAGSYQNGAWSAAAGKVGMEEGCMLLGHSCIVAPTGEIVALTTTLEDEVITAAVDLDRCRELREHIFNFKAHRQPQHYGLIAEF

Structure (SMILES) | % ACTIVITY (hydrolytic activity, assuming as 100 the activity against N-carbamoyl-D(-)-parahydroxyphenylglycine) | activity of the carbamoylytic enzyme, ranking among substrates (20 mM substrate, pyrophosphate buffer 0.1 M pH 7.7, 40° C.)
CC(C)[C@@H](NC(N)=O)C(=O)O [N-carbamoyl-D(-)-valine] | 34.25% | 
COc1ccc([C@@H](NC(N)=O)C(=O)O)cc1 [N-carbamoyl-D(-)-paramethoxyphenylglycine] | 40.0% | 
NC(=O)N[C@H](Cc1ccccc1)C(=O)O [N-carbamoyl-D(-)-phenylalanine] | 50.0% | 
NC(=O)N[C@@H](C(=O)O)c1ccc(O)cc1 [N-carbamoyl-D(-)-parahydroxyphenylglycine] | 100.0% | highest activity
NC(=O)N[C@H](C(=O)O)c1ccccc1 [N-carbamoyl-L(+)-phenylglycine] | 0% | 
NC(=O)N[C@H](CCC(=O)O)C(=O)O [N-carbamoyl-D(-)glutamic acid] | 21.7% | 
NC(=O)N[C@@H](CCC(=O)O)C(=O)O [N-carbamoyl-L(+)glutamic acid] | 0% | 
C[C@@H](NC(N)=O)C(=O)O [N-carbamoyl-D-(-)-alanine] | 57.5% | 
NC(=O)N[C@@H](C(=O)O)c1cccs1 [N-carbamoyl-D(-)-(2-thienyl)glycine] | 40.7% | 
NC(=O)N[C@@H](C(=O)O)c1ccccc1 [N-carbamoyl-D(-)-phenylglycine] | 81.25% | 

Source: US4312948A, “Enzymic microbiological process for producing optically active aminoacids starting from hydantoins and/or racemic carbamoyl derivatives” (priority 1978, dated 1982)
